Measured values as given in ChEMBL document CHEMBL1201862, “PubChem BioAssay data set” (2004).
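Values below derive from 48-hour exposures of cells grown in 96-well plates, with endpoints linearly interpolated between the two concentrations bracketing the appropriate inhibition level. GI50 is the concentration that inhibits growth by half.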 The source made the active and inactive calls. No stated cut-off is given here; in the data, active = GI50 up to about 1.1 µM and inactive = higher.

What was measured:
Assay in all cases: growth of human tumour cells (NCI), 48 h
ACHN = system: ACHN
SK-OV-3 = system: SK-OV-3
U-251 = system: U-251
HCT-116 = system: HCT-116
UO-31 = system: UO-31
CAKI-1 = system: CAKI-1
HOP-92 = system: HOP-92
SNB-75 = system: SNB-75
SK-MEL-2 = system: SK-MEL-2
HL-60 = system: HL-60
COLO 205 = system: COLO 205
SF-539 = system: SF-539
OVCAR-8 = system: OVCAR-8
OVCAR-3 = system: OVCAR-3
UACC-257 = system: UACC-257
NCI-H522 = system: NCI-H522

Measured: GI50

CN(C)CCNC(=O)c1cccc2c1nc(-c1ccncc1)c1ccccc12
inactive: ACHN 1.65 µM | SK-OV-3 5.71 µM | U-251 2.34 µM | HCT-116 1.46 µM | UO-31 1.63 µM | CAKI-1 1.81 µM | HOP-92 2.09 µM | SNB-75 3.36 µM | SK-MEL-2 6.12 µM | HL-60 1.36 µM | COLO 205 1.61 µM | SF-539 2.03 µM | OVCAR-8 3.06 µM | OVCAR-3 5.35 µM | UACC-257 3.01 µM

COC(=O)CCC(NC(=S)N/N=C(\C)c1cnc2ccccc2n1)C(=O)OC (stereo unspecified)
inactive: ACHN 20.6 µM | SK-OV-3 76.9 µM | U-251 43.2 µM | NCI-H522 11.2 µM | HCT-116 18.3 µM | UO-31 27.4 µM | SNB-75 47.4 µM | SK-MEL-2 56.8 µM | HL-60 2.33 µM | COLO 205 2.55 µM | SF-539 41.8 µM | OVCAR-8 46.9 µM | OVCAR-3 42.8 µM | UACC-257 49.5 µM

Cc1ccc(Oc2ccc(C)cc2N)cc1
inactive: SK-OV-3 > 100 µM | U-251 30.5 µM | HCT-116 > 100 µM | UO-31 34.8 µM | HOP-92 32.3 µM | SNB-75 16.5 µM | SK-MEL-2 > 100 µM | HL-60 33.9 µM | COLO 205 > 100 µM | SF-539 > 100 µM | OVCAR-8 > 100 µM | OVCAR-3 36 µM | UACC-257 80.9 µM

COCCOCOC(CCCCO)c1cc(C)c(O[Si](C)(C)C(C)(C)C)c(C)c1 (stereo unspecified)
inactive: ACHN 7.62 µM | SK-OV-3 17.6 µM | U-251 10.8 µM | NCI-H522 1.64 µM | UO-31 4.11 µM | SNB-75 10.6 µM | SK-MEL-2 8.89 µM | HL-60 1.59 µM | COLO 205 7.71 µM | SF-539 12.4 µM | OVCAR-8 5.01 µM | OVCAR-3 5.83 µM | UACC-257 3.01 µM

CC1C2=CC=C(O2)C(C)(C)C2=CC=C(O2)C(C)(C)C2=CC=C(O2)C(C)(C)C2=CC=C1O2
inactive: ACHN > 100 µM | SK-OV-3 > 100 µM | U-251 > 100 µM | NCI-H522 > 100 µM | HCT-116 > 100 µM | CAKI-1 > 100 µM | HOP-92 18.9 µM | SK-MEL-2 > 100 µM | HL-60 > 100 µM | COLO 205 > 100 µM | SF-539 > 100 µM | OVCAR-8 > 100 µM | UACC-257 > 100 µM

Oc1cc(-c2ccccn2)nc2cccc(F)c12
inactive: ACHN > 100 µM | SK-OV-3 > 100 µM | NCI-H522 > 100 µM | UO-31 > 100 µM | HOP-92 > 100 µM | SNB-75 51.4 µM | HL-60 > 100 µM | COLO 205 > 100 µM | SF-539 > 100 µM | OVCAR-8 > 100 µM | OVCAR-3 > 100 µM | UACC-257 > 100 µM

BrC1(Br)C2/C=C\CCCCC21 (stereo unspecified)
inactive: ACHN > 100 µM | U-251 > 100 µM | NCI-H522 > 100 µM | HCT-116 > 100 µM | CAKI-1 > 100 µM | HOP-92 42.3 µM | SK-MEL-2 > 100 µM | HL-60 > 100 µM | COLO 205 > 100 µM | SF-539 > 100 µM | OVCAR-8 > 100 µM | UACC-257 > 100 µM

Cc1c(C(=O)/C=C/c2ccco2)[n+]([O-])c2ccccc2[n+]1[O-]
inactive: ACHN > 100 µM | SK-OV-3 > 100 µM | NCI-H522 58.9 µM | HCT-116 > 100 µM | UO-31 > 100 µM | CAKI-1 > 100 µM | HOP-92 45.4 µM | SNB-75 > 100 µM | HL-60 42 µM | COLO 205 > 100 µM | SF-539 > 100 µM | OVCAR-8 > 100 µM | OVCAR-3 > 100 µM | UACC-257 > 100 µM
